This assay deals with Nakaseomyces glabratus. As to the kind of experiment: Antimicrobial activity against Candida glabrata assessed as reversal of azole resistance after 24 to 48 hrs. The assay is classed as functional, organism-based.

SMILES strings stand for the structures. Activity calls are given as the source filed them. The rule behind the calls is not given here.

Take `C[C@H]1[C@H](C)CC[C@]2(C(=O)O)CC[C@]3(C)C(=CC[C@@H]4[C@@]5(C)CC[C@H](O)C(C)(C)[C@@H]5CC[C@]43C)[C@H]12`: the result was inactive.

As for `C/C(=C/CC[C@@H](C)[C@H]1CC[C@@]2(C)[C@@H]3CC[C@H]4C(C)(C)[C@@H](O)[C@H](O)C[C@@]45C[C@@]35CC[C@]12C)CO`, the outcome was inactive.

The record behind these values is ChEMBL document CHEMBL1150679, “Genipatriol, a new cycloartane triterpene from Genipa spruceana” (J Nat Prod, 2003).
